Measurements published in article PMC6271529, “Studies on the Anticonvulsant Activity and Influence on GABA-ergic Neurotransmission of 1,2,4-Triazole-3-thione-Based Compounds” (Molecules, 2014).
Like-named read-outs stand apart in the source and are kept apart here.

How the values were obtained:
[1] = system: maximal electroshock-induced seizures; experiment: Maximal electroshock-induced seizure (MES) test in mice; format: in vivo, mouse; conditions: for p/t, number of animals protected against MES-induced seizures / number tested / responders at 300 mg/kg: 300 mg/kg i.p.; for ED50 / responders at 300 mg/kg: Mus musculus, ip; for PI (TD50/ED50): protective index; for onset of action: significant protection as early as 15 min after parenteral administration, MES; for responders at 300 mg/kg: read-out: percent of animals protected against MES-induced seizures
Method in brief: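 Mice given compound i.p. (300 mg/kg screen, then graded doses) 15, 30, 60 or 120 min before ear-clip electroshock (25 mA, 50 Hz, 0.2 s); tonic hind limb extension scored as seizure. ED50 (dose protecting 50% of animals) from Litchfield–Wilcoxon dose-response lines.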

[2] = system: GABAA receptors; experiment: Radioligand binding assay, [3H]muscimol, rat cerebral cortex; conditions: for Percent of Specific Binding, GABAA: compound 1 × 10^−6 M, [3H]muscimol, rat cerebral cortex; for effect of added compound on affinity of GABA to GABAA receptors: radioligand binding, GABA in combination with compound;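 as to Percent of Specific Binding, GABAA: low percentages indicate weak binding of the compound to the receptor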
Experimental: Binding experiments were conducted in 96-well microplates in a total volume of 200 μL of appropriate buffer. The reaction mixture included 50 μL solution of test compound, 50 μL of radioligand, and […] the tissue suspension. Rat cerebral cortex was used for each receptor. […] Radioligand binding data were analyzed using iterative curve fitting routines (GraphPAD/Prism, Version 3.0, San Diego, CA, USA). Ki values were calculated from the Cheng and Prusoff equation [36].

[3] = sub-protective doses of the compound co-administered with valproate; cited from earlier work
[4] = system: benzodiazepine (BDZ)-binding sites; experiment: Radioligand binding assay, [3H]flunitrazepam, rat cerebral cortex; conditions: compound 1 × 10^−6 M;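 also: low percentages indicate weak binding of the compound to the site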
Experimental: Binding experiments were conducted in 96-well microplates in a total volume of 200 μL of appropriate buffer. The reaction mixture included 50 μL solution of test compound, 50 μL of radioligand, and […] the tissue suspension. Rat cerebral cortex was used for each receptor. The radioactivity was measured in MicroBeta TriLux 1450-liquid scintillation counter (PerkinElmer, Waltham, MA, USA). Radioligand binding data were analyzed using iterative curve fitting routines (GraphPAD/Prism, Version 3.0, San Diego, CA, USA). Ki values were calculated from the Cheng and Prusoff equation [36].

[5] = system: threshold for electroconvulsions; design: method as in PMID 22732650; conditions: cited from earlier work
[6] = pretreatment time 120 min, mice
[7] = chimney TD50 / MES ED50, pretreatment time 15 min
[8] = chimney TD50 / MES ED50, pretreatment time 30 min
[9] = chimney TD50 / MES ED50, pretreatment time 60 min
[10] = chimney TD50 / MES ED50, pretreatment time 120 min

Cc1ccc(-n2c(-c3cccc(Cl)c3)n[nH]c2=S)cc1 [Compound 10a, 5-(3-Chlorophenyl)-4-(4-methylphenyl)-2,4-dihydro-3H-1,2,4-triazole-3-thione]
p/t, number of animals protected against MES-induced seizures / number tested ([1]; pretreatment time 15 min, mice): 8/8 | p/t, number of animals protected against MES-induced seizures / number tested ([1]; pretreatment time 30 min, mice): 8/8 | p/t, number of animals protected against MES-induced seizures / number tested ([1]; pretreatment time 60 min, mice): 8/8 | p/t, number of animals protected against MES-induced seizures / number tested [1, 6]: 6/8 | ED50 ([1]; read-out: ED50 ± S.E. (MES test), i.p., pretreatment time 15 min, mice): 57 ± 9.4 mg/kg | ED50 ([1]; read-out: ED50 ± S.E. (MES test), i.p., pretreatment time 30 min, mice): 74.5 ± 8.1 mg/kg | ED50 ([1]; read-out: ED50 ± S.E. (MES test), i.p., pretreatment time 60 min, mice): 187 ± 18.8 mg/kg | ED50 ([1]; read-out: ED50 ± S.E. (MES test), i.p., pretreatment time 120 min, mice): 281 ± 13.6 mg/kg | PI (TD50/ED50) [1, 7]: 5.9 | PI (TD50/ED50) [1, 8]: 4.5 | PI (TD50/ED50) [1, 9]: 1.8 | PI (TD50/ED50) [1, 10]: 1.4 | onset of action ([1]; mice): quick onset of action | Percent of Specific Binding, GABAA [2]: 2% | effect of added compound on affinity of GABA to GABAA receptors [2]: did not lead to an increase | elevation of total brain concentration of valproate [3]: 52% | Percent of Specific Binding, BDZ [4]: 9%

S=c1[nH]nc(-c2cccc(Cl)c2)n1-c1ccc(Br)cc1 [Compound 6a, 4-(4-Bromophenyl)-5-(3-chlorophenyl)-2,4-dihydro-3H-1,2,4-triazole-3-thione]
p/t, number of animals protected against MES-induced seizures / number tested ([1]; pretreatment time 15 min, mice): 4/8 | p/t, number of animals protected against MES-induced seizures / number tested ([1]; pretreatment time 30 min, mice): 6/8 | p/t, number of animals protected against MES-induced seizures / number tested ([1]; pretreatment time 60 min, mice): 6/8 | p/t, number of animals protected against MES-induced seizures / number tested [1, 6]: 3/8 | anticonvulsant activity (in words) ([1]; MES test, mice): slightly weaker than that of valproate | responders at 300 mg/kg ([1]; 0.25 h, pretreatment time 15 min, mice): 50% | responders at 300 mg/kg ([1]; 0.5 h, pretreatment time 30 min, mice): 75% | responders at 300 mg/kg ([1]; 1 h, pretreatment time 60 min, mice): 75% | responders at 300 mg/kg ([1]; 2 h, pretreatment time 120 min, mice): 37.5% | ED50 ([1]; pretreatment time 15 min, mice, read-out: ED50 ± S.E. (MES test)): 298 ± 21.1 mg/kg | ED50 ([1]; pretreatment time 30 min, mice, read-out: ED50 ± S.E. (MES test)): 218 ± 21.7 mg/kg | ED50 ([1]; pretreatment time 60 min, mice, read-out: ED50 ± S.E. (MES test)): 209 ± 27.3 mg/kg | ED50 ([1]; pretreatment time 120 min, mice, read-out: ED50 ± S.E. (MES test)): 336 ± 14 mg/kg | PI (TD50/ED50) [1, 7]: 1.2 | PI (TD50/ED50) [1, 8]: 1.8 | PI (TD50/ED50) [1, 9]: 1.9 | PI (TD50/ED50) [1, 10]: 1.3 | onset of action ([1]; mice): quick onset of action | Percent of Specific Binding, GABAA [2]: 17% | effect of added compound on affinity of GABA to GABAA receptors [2]: did not lead to an increase | Percent of Specific Binding, BDZ [4]: 20% | elevation of the threshold for electroconvulsions [5]: 70%
